Data: ChEMBL document CHEMBL4825757, “Optimization of 4,6-Disubstituted Pyrido[3,2-d]pyrimidines as Dual MNK/PIM Inhibitors to Inhibit Leukemia Cell Growth” (J Med Chem, 2021)
pIC50: −log10 of the molar value. Active and inactive are the calls of the source. The rule behind the calls is not given here.

Legend:
[1] = target: T1, Serine/threonine-protein kinase B-raf (Homo sapiens, UniProt P15056); experiment: Inhibition of wild-type human partial length BRAF (S429 to E741 residues) expressed in mammalian expression system at 1 uM by Kinomescan method relative to control
[2] = target: T2, Epidermal growth factor receptor (Homo sapiens, UniProt P00533); experiment: Inhibition of wild-type human partial length EGFR (R669 to V1011 residues) expressed in bacterial expression system at 1 uM by Kinomescan method relative to control
[3] = target: Serine/threonine-protein kinase pim-2 (Homo sapiens, UniProt Q9P1W9); experiment: Inhibition of recombinant human Pim2 (2 to end residues) using RSRHSSYPAGT as substrate incubated for 40 mins in presence of [gamma33P]ATP by scintillation counting based radiometry assay
[4] = target: Receptor tyrosine-protein kinase erbB-2 (Homo sapiens, UniProt P04626); experiment: Inhibition of ERBB2 (unknown origin) by mobility shift assay
[5] = AUC (0 to t) in Sprague Dawley rat at 10 mg/kg, po measured after 24 hrs; type: ADME, organism-based; set-up: route oral, dose 10 mg/kg, time 24 hrs; settings: in vivo
[6] = target: T3, Serine/threonine-protein kinase pim-3 (Homo sapiens, UniProt Q86V86); experiment: Inhibition of recombinant human Pim3 (2 to end residues) using RSRHSSYPAGT as substrate incubated for 40 mins in presence of [gamma33P]ATP by scintillation counting based radiometry assay
[7] = tested on: K562; experiment: Downregulation of cyclin-D1 levels in human K562 cells at 1 to 2 uM incubated for 24 hrs by western blot analysis; type: functional, cell-based; settings: dose 1-2 µM
[8] = tested on: MOLM-13; experiment: Induction of cell cycle arrest in human MOLM-13 cells assessed as sub-G1 phase at 2 uM incubated for 12 hr by propidium iodide based flow cytometry analysis (Rvb= 4.78%); type: functional
[9] = Cmax in Sprague Dawley rat at 2 mg/kg, iv measured after 24 hrs; type: ADME, organism-based; set-up: route intravenous, time 24 hrs, dose 2 mg/kg; settings: in vivo
[10] = target: MAP kinase-interacting serine/threonine-protein kinase 1/2 (Homo sapiens) (UniProt Q9HBH9+Q9BUB5); experiment: Inhibition of MNK1/MNK2 in human K562 cells assessed as reduction in eIF4E phosphorylation at 1 to 2 uM incubated for 24 hrs by western blot analysis; type: cell-based; settings: dose 1-2 µM
[11] = target: Serine/threonine-protein kinase pim-1 (Homo sapiens, UniProt P11309); experiment: Inhibition of full length recombinant human PIM1 using KKRNRTLTV as substrate incubated for 40 mins in presence of [gamma33P]ATP by scintillation counting based radiometry assay
[12] = target: T4, Serine/threonine-protein kinase PIM (Homo sapiens) (UniProt P11309+Q9P1W9+Q86V86); experiment: Inhibition of PIM in human MOLM-13 cells assessed as reduction of BAD phosphorylation at 1 to 2 uM incubated for 12 hrs by western blot analysis; type: cell-based; settings: dose 1-2 µM
[13] = Half life in Sprague Dawley rat at 2 mg/kg, iv measured after 24 hrs; type: ADME, organism-based; settings: in vivo
[14] = target: T2, Epidermal growth factor receptor; experiment: Inhibition of recombinant human EGFR (696 to end residues) using poly(Glu, Tyr) 4:1 as substrate after 40 mins in presence of [gamma-33ATP] by radiometric scintillation counting analysis
[15] = tested on: MOLM-13; experiment: Induction of apoptosis in human MOLM-13 cells assessed as live cells at 1 uM incubated for 12 hrs by annexin-V and propidium iodide staining based flow cytometry analysis (reference value: 91.49%); type: functional
[16] = tested on: MOLM-13; experiment: Antitumor activity against human MOLM-13 cells xenografted in NOD/SCID mouse assessed as decrease in cyclin-D1 levels at 10 mg/kg, ip daily for 2 weeks by western blot analysis; type: functional, organism-based
[17] = target: MAP kinase-interacting serine/threonine-protein kinase 1 (Homo sapiens, UniProt Q9BUB5); experiment: Inhibition of wild type human full length MKN1 (M1 to L424) expressed in mammalian expression system by HTRF method
[18] = target: T5, MAP kinase-interacting serine/threonine-protein kinase 2 (Homo sapiens, UniProt Q9HBH9); experiment: Inhibition of wild type human partial length MKN2 (G63 to S388 residues) expressed in mammalian expression system at 1 uM by Kinomescan method relative to control
Target sequence in this assay (Q9HBH9 whole entry, looked up, the tested form may be a part): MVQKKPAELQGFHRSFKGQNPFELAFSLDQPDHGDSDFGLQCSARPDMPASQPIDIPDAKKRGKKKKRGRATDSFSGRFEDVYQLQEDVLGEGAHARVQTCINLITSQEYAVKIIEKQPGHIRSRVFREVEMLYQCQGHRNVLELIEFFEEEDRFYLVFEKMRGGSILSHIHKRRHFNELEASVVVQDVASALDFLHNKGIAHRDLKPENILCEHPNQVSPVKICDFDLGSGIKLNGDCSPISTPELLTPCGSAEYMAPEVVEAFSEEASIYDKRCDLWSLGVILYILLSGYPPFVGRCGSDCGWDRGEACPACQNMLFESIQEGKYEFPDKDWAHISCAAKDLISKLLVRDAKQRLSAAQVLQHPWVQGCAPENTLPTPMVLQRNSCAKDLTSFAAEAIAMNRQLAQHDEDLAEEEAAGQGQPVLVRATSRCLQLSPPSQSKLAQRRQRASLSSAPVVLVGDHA

[19] = target: T3, Serine/threonine-protein kinase pim-3; experiment: Inhibition of wild-type human partial length PIM3 (G16 to A317 residues) expressed in bacterial expression system at 1 uM by Kinomescan method relative to control
[20] = tested on: MOLM-13; experiment: Antitumor activity against human MOLM-13 cells xenografted in NOD/SCID mouse assessed as tumor growth inhibition at 10 mg/kg, ip daily for 2 weeks; type: functional; settings: MOLM-13, ip, 336 h, read-out: TGI
[21] = tested on: MOLM-13; experiment: Induction of cell cycle arrest in human MOLM-13 cells assessed as G1 phase at 2 uM incubated for 12 hr by propidium iodide based flow cytometry analysis (Rvb= 51.29%); type: functional
[22] = tested on: MOLM-13; experiment: Antiproliferative activity against human MOLM13 cells assessed as reduction of cell viability incubated for 72 hrs by trypan blue staining based cell counting analysis; type: functional
[23] = tested on: MOLM-13; experiment: Induction of cell cycle arrest in human MOLM-13 cells assessed as G1 phase at 1 uM incubated for 12 hr by propidium iodide based flow cytometry analysis (Rvb= 51.29%); type: functional
[24] = tested on: MOLM-13; experiment: Induction of cell cycle arrest in human MOLM-13 cells assessed as sub-G1 phase at 1 uM incubated for 12 hr by propidium iodide based flow cytometry analysis (Rvb= 4.78%); type: functional
[25] = Metabolic stability in rat liver microsomes assessed as half life preincubated for 10 mins followed by NADPH addition and further incubated upto 60 mins by LC-MS/MS analysis; type: ADME, Microsome; settings: time <=70 min
[26] = Intrinsic clearance in human liver microsomes preincubated for 10 mins followed by NADPH addition and further incubated upto 60 mins by LC-MS/MS analysis; type: ADME, Microsome; settings: time <=70 min, read-out: CLH
[27] = Cmax in Sprague Dawley rat at 10 mg/kg, ip measured after 24 hrs; type: ADME, organism-based; set-up: route intraperitoneal, time 24 hrs, dose 10 mg/kg; settings: in vivo
[28] = target: T1, Serine/threonine-protein kinase B-raf; experiment: Inhibition of recombinant human B-Raf (416 to end residues) using myelin as substrate incubated for 40 mins in presence of [gamma-33P]-ATP by radiometric scintillation counting analysis
[29] = Intrinsic clearance in rat liver microsomes preincubated for 10 mins followed by NADPH addition and further incubated upto 60 mins by LC-MS/MS analysis; type: ADME, Microsome; settings: time <=70 min, read-out: CLH
[30] = tested on: MOLM-13; experiment: Induction of apoptosis in human MOLM-13 cells assessed as late apoptotic cells at 1 uM incubated for 12 hrs by annexin-V and propidium iodide staining based flow cytometry analysis (reference value: 3.03%); type: functional
[31] = target: T4, Serine/threonine-protein kinase PIM (Homo sapiens); experiment: Inhibition of PIM in human K562 cells assessed as reduction in phosphorylated 4EBP1 at 1 to 2 uM incubated for 24 hrs by western blot analysis; type: cell-based; settings: dose 1-2 µM
[32] = target: T5, MAP kinase-interacting serine/threonine-protein kinase 2; experiment: Inhibition of MKN2 (unknown origin) in presence of ATP by HTRF assay
Target sequence in this assay (Q9HBH9 whole entry, the tested form may be a part): as the sequence (Q9HBH9 whole entry, looked up, the tested form may be a part) above

[33] = Tmax in Sprague Dawley rat at 10 mg/kg, ip measured after 24 hrs; type: ADME, organism-based; settings: in vivo
[34] = target: T4, Serine/threonine-protein kinase PIM (Homo sapiens); experiment: Inhibition of PIM in human MOLM-13 cells assessed as reduction in phosphorylated 4EBP1 at 1 to 2 uM incubated for 12 hrs by western blot analysis; type: cell-based; settings: dose 1-2 µM
[35] = tested on: MOLM-13; experiment: Downregulation of cyclin-D1 levels in human MOLM-13 cells at 1 to 2 uM incubated for 12 hrs by western blot analysis; type: functional, cell-based; settings: dose 1-2 µM

T4 sequence (P11309 whole entry, looked up): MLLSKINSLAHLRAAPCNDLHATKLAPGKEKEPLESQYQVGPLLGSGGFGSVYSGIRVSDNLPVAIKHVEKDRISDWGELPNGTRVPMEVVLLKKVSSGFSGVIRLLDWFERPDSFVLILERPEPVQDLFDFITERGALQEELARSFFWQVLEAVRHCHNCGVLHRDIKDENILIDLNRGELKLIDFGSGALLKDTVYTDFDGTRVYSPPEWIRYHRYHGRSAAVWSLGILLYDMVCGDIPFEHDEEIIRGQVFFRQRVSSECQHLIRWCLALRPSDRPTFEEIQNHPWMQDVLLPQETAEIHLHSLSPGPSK
T4 sequence (Q9P1W9 whole entry, looked up): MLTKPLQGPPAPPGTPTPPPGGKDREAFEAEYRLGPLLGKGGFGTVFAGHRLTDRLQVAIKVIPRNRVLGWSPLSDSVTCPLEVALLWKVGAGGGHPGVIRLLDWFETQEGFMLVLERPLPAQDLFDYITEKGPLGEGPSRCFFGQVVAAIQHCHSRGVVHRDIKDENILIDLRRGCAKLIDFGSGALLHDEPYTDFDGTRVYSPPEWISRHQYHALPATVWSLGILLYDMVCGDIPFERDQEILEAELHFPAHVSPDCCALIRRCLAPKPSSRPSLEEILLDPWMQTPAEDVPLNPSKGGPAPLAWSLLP
T2 sequence (P00533 whole entry, the tested form may be a part): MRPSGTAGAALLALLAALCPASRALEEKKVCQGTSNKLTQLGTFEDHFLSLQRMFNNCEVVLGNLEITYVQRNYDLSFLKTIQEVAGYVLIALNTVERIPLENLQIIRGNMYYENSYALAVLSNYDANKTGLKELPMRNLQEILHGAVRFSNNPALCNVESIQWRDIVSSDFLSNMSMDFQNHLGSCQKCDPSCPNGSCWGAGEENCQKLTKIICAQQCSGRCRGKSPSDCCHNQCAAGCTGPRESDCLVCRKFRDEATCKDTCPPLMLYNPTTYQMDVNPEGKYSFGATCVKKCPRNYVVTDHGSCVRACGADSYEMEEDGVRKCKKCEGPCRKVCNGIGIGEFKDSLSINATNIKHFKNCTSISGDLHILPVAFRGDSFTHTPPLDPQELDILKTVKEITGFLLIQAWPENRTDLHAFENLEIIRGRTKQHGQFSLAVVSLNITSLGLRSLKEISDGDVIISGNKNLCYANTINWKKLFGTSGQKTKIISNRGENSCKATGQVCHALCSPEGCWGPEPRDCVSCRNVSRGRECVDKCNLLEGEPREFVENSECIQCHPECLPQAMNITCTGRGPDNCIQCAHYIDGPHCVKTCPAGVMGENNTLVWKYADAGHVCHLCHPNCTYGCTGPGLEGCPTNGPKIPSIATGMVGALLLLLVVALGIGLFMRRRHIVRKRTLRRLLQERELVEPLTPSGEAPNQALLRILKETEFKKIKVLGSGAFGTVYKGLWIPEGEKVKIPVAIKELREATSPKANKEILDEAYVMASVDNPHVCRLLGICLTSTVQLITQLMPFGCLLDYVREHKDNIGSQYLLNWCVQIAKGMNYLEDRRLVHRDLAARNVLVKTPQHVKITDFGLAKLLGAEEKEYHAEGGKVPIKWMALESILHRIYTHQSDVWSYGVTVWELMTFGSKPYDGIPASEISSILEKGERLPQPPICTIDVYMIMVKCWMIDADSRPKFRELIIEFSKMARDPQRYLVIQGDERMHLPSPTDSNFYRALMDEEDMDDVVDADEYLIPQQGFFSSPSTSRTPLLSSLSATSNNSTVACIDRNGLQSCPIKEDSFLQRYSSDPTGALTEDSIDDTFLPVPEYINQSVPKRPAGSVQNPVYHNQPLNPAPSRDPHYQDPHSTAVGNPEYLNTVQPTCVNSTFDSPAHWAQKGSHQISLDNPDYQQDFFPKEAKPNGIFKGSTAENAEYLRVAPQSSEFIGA
T1 sequence (P15056 whole entry, the tested form may be a part): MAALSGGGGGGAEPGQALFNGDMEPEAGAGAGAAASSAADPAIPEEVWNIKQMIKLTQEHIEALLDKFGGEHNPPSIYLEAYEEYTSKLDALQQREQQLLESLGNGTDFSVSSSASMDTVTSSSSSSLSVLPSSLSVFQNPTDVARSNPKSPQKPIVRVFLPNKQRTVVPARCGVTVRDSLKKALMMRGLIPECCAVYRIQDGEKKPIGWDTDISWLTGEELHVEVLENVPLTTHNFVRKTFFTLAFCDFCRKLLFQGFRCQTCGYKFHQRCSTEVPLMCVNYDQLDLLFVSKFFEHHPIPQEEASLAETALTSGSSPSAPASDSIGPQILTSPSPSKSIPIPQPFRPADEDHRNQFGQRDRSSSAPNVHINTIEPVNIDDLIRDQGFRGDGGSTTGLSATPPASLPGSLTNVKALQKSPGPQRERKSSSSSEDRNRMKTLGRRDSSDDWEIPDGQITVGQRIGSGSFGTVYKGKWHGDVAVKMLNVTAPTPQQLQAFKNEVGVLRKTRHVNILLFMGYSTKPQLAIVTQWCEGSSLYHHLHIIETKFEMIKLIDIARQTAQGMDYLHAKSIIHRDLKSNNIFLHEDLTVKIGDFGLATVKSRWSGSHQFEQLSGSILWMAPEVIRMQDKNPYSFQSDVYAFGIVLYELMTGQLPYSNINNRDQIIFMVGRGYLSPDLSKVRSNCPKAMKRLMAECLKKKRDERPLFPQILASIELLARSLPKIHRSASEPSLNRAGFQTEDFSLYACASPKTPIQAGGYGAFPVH
Chain of Receptor tyrosine-protein kinase erbB-2 (P04626 whole entry): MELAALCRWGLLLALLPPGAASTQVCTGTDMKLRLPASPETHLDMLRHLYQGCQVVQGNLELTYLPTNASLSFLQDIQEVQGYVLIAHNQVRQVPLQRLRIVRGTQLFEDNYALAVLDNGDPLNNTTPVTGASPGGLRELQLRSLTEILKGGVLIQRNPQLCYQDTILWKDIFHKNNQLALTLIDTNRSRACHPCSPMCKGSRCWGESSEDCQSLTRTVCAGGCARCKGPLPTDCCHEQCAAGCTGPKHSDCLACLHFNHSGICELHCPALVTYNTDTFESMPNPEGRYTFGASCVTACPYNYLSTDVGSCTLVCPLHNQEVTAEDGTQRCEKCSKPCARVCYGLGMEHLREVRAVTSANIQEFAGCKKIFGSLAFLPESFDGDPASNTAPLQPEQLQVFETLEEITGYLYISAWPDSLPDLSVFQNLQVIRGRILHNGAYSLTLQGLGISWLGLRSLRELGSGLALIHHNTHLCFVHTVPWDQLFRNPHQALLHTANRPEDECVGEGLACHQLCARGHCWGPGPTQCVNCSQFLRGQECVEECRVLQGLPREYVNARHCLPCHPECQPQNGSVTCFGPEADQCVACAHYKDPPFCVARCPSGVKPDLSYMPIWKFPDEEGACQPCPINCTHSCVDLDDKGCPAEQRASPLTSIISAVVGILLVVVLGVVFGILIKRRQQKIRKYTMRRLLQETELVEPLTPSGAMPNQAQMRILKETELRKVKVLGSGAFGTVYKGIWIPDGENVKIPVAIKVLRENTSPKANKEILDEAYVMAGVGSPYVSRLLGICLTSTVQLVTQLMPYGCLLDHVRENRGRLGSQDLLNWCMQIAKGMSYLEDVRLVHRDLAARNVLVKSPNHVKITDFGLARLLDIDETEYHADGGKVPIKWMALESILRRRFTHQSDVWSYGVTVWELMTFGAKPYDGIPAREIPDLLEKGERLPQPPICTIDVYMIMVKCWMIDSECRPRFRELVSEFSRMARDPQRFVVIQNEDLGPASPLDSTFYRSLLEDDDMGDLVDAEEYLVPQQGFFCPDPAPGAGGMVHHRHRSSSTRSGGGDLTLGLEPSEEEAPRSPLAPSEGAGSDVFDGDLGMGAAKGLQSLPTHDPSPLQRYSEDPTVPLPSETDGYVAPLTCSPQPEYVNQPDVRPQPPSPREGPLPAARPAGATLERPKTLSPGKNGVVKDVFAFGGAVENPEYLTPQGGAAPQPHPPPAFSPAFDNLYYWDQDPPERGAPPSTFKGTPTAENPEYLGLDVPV
Chain of Serine/threonine-protein kinase pim-1 (P11309 whole entry): as the sequence (P11309 whole entry, looked up) above

inhibition [1]: 87%
inhibition [2]: 73%
pIC50 [3]: 6.63
pIC50 [4]: 5.13
AUC(0-t) at 24 h [5]: 2850 ng·h/mL
pIC50 [6]: 6.11
Cmax [9]: 652 ng/mL
inhibition [10]: Dose-Dependent Effect
pIC50 [11]: 7.37
inhibition [12]: Active
half-life [13]: 403 min
pIC50 [14]: 5.71
pIC50 [17]: 9.00
inhibition [18]: 100%
inhibition [19]: 90%
GI50 [22]: 1230 nM
half-life [25]: 36.1 min
CLint scaled [26]: 8.53 mL/min/kg
Cmax [27]: 405 ng/mL
pIC50 [28]: 5.65
CLint scaled [29]: 68.8 mL/min/kg
inhibition [31]: Dose-Dependent Effect
pIC50 [32]: 8.15
Tmax [33]: 40.2 min
inhibition [34]: Active
SMILES: CC(C)Oc1cc(F)ccc1Nc1ncnc2ccc(-c3ccc(C(=O)N4CCNCC4)cc3)nc12
Activity [7]: Active
Activity [8]: 32.41%
Activity [15]: 90.09%
Activity [16]: Active
inhibition in vivo at 10 mg/kg [20]: 57.6%
Activity [21]: 44.38%
Activity [23]: 61.13%
Activity [24]: 11.81%
Activity [30]: 2.97%
Activity [35]: Active
